Row | melting point [°C] | SMILES
1 | 85 to 91 | CCn1c2ccccc2c2cc(C=O)ccc21
2 | 111 to 116 | CC(=O)Oc1ccc(N=C2C=CC(=O)C=C2)cc1
3 | 34 to 36 | O=[N+]([O-])c1cc(C(F)(F)F)ccc1N1CCOCC1
4 | 62.3 | Clc1cc(Cl)c2ccccc2c1
5 | 121 to 122 | S=C=Nc1ccc(N2CCOCC2)nc1
6 | 25 | CNCCCN1c2ccccc2CCc2ccccc21
7 | 215 to 216 | CNc1c(C=O)c(=O)oc2ccccc12
8 | -59 | ClCCC(Cl)Cl
9 | 211 to 212 | N#Cc1cccc2c(NC(=O)c3ccccc3)cccc12
10 | 71 | N#CC(C(=O)OCc1ccccc1)c1cc(C(F)(F)F)ccc1[N+](=O)[O-] (stereo not drawn)
11 | 182 | O=[N+]([O-])c1ccccc1C(Br)C(Br)c1ccccn1 (stereo not drawn)
12 | 234 to 237 | CSc1nc(N)nc(-c2ccncc2)n1
13 | 53 to 55 | Ic1cccc(Cn2cncn2)c1
14 | 83 | CC(=O)c1ccc2c(c1)OCCO2
15 | 160 | Nc1ccc2[nH]nnc2c1
16 | 225 to 228 | CN(C)c1ccc(C=CC(=O)O)cc1
17 | 71 to 73 | COc1ccc(OCc2ccccc2)cc1
18 | 105 to 107 | CC(=O)c1ccc(OCc2ccc(F)cc2)c([N+](=O)[O-])c1
19 | 120 | c1ccc(CN(CC2=NCCN2)c2ccccc2)cc1
20 | 130 | CCN(CC)CC#CCOC(=O)C(O)(c1ccccc1)C1CCCCC1 (stereo not drawn)
21 | 52 | CC(Cc1ccccc1)c1ccccc1 (stereo not drawn)
22 | 49 | S=c1sccs1
23 | 85 to 86 | c1cnc2c(c1)OCCN2
24 | 40 | Cc1ccc(S(=O)(=O)OCC(F)(F)F)cc1
25 | 228 | Cc1c(/N=C/c2cc(Br)cc(Br)c2O)c(=O)n(-c2ccccc2)n1C
26 | 84 | Nc1ncc(Cl)cc1Br

Row | melting point [°C] | SMILES
27 | 121 to 122 | O=C(O)CCC(=O)c1cccs1
28 | 109 to 113 | O=C(O)c1ccccc1CSc1ccccc1
29 | 59 to 61 | Nc1c(F)c(F)c(Br)c(F)c1F
30 | -100 | C=CC(C)O (stereo not drawn)
31 | 188 | Cn1c(S)nnc1-c1ccccc1
32 | 270 | Cn1c(=O)c(C2=NNC(=O)C2=NNc2ccccc2Br)c(O)c2ccccc21
33 | 280 | C=C1C(=O)C23C(OC(C)=O)CC4C(C)(C)CCC(OC(C)=O)C4(C)C2C(OC(C)=O)CC1(OC(C)=O)C3OC(C)=O (stereo not drawn)
34 | 40.5 | CN(C)C(=O)CCCOC(=O)c1ccccc1
35 | 38 | S=C=Nc1ccc(Cl)cc1Cl
36 | 124 to 125 | Cc1csc2c(Cl)ncnc12
37 | 200 | CSc1ncc(Cl)c(C(=O)O)n1
38 | 88 | Clc1ccc(N=Nc2ccccc2)cc1
39 | 21 | CCOc1ccccc1C=O
40 | 180 | O=C1C=C2CC3(O)COc4c(ccc(O)c4O)C3=C2C=C1O (stereo not drawn)
41 | 92.5 | O=[N+]([O-])c1c(O)c(Cl)cc(Cl)c1Cl
42 | 68 to 70 | CC1(C)OC2OC(CO)C(O)C2O1 (stereo not drawn)
43 | 123 | Clc1nnnn1-c1ccccc1
44 | 149 | CC12CCC3=C(CC[C@]4(C)C(=O)CC[C@@H]34)[C@H]1CCC(=O)C2 (stereo partly drawn)
45 | 220 | CC(CCC(=O)O)C1CCC2C3C(O)CC4CC(O)CCC4(C)C3CC(=O)C12C (stereo not drawn)
46 | 26 | O=C=N[Si](N=C=O)(N=C=O)N=C=O
47 | 151 | O=C1CCC2CC1CCC2=O
48 | 139 to 141 | O=C(O)c1cnn(-c2ccccc2)c1C(F)(F)F
49 | 223 | O=C(O)C(=Cc1ccccc1)C(=Cc1ccccc1)C(=O)O
50 | -75 | CCCCOC(=O)CC
51 | 235 | Nc1cc(N)cc(C(=O)O)c1
52 | 78 | Nc1ccccc1COc1ccccc1

Row | melting point [°C] | SMILES
53 | 66 | Cc1ccnc(Cl)c1N
54 | 215 | COc1cnc(NS(=O)(=O)c2ccc(N)cc2)nc1
55 | 172 | NNc1nncc2ccccc12
56 | 188 to 190 | Cc1nc(C(F)(F)F)c(C(=O)O)cc1-c1nc(-c2ccccc2)cs1
57 | 250 | Nc1ccc(C=Cc2ccc(N)cc2OS(=O)(=O)c2ccccc2)c(OS(=O)(=O)c2ccccc2)c1
58 | 288 | Cc1c(Br)c(Br)c(Br)c(Br)c1Br
59 | 205 to 207 | O=[N+]([O-])c1ccc2[nH]ccc2c1
60 | 58 | C[Si](C)(C)C#Cc1cccc(C#C[Si](C)(C)C)c1
61 | 70 | COc1cccc2[nH]ccc12
62 | 146 to 147 | CS(=O)(=O)Nc1cccc(C=O)c1
63 | 196 | Cc1cccc(N/N=C(\C#N)c2nc(-c3ccc(Cl)cc3)cs2)c1C
64 | 355 to 357 | O=C1OC(=O)[C@H]2[C@@H]1[C@@H]1C3C=CC([C@H]21)[C@H]1C(=O)OC(=O)[C@@H]31
65 | 185 to 186 | O=[N+]([O-])c1ccc(C#Cc2ccc([N+](=O)[O-])cc2S(=O)(=O)Oc2ccccc2)c(S(=O)(=O)Oc2ccccc2)c1
66 | 159 | COc1cc(C(=O)O)ccc1C
67 | 87 | O=C(Cl)c1cc2ccccc2s1
68 | 320 | Cc1cc2nc3c(=O)[nH]c(=O)nc-3n(C)c2cc1C
69 | 140 to 145 | NNc1cc(Cl)c(C(F)(F)F)cc1[N+](=O)[O-]
70 | 148 to 150 | NC(=S)Nc1ccccn1
71 | 170 | O=C(Nc1ccccc1)OC1CCCCC(OC(=O)Nc2ccccc2)C1 (stereo not drawn)
72 | 161 to 165 | Cc1ccccc1C(=O)NCC(=O)O
73 | 91 | O=[N+]([O-])c1ncccc1Cl
74 | 183 | COC(=O)c1cc(C(=O)O)cc([N+](=O)[O-])c1
75 | 104 to 108 | O=Cc1cccc(NS(=O)(=O)c2ccccc2)c1
76 | -10 | CCCCCCCCCC1CCCCC1
77 | 30 | CCCCCCCCCCCCCCCCC(=O)OC

The next lines start with the molecule.

Row | SMILES | melting point [°C]
78 | CC(=O)C1(C)Cc2ccccc2C(=O)O1 (stereo not drawn) | 105
79 | CN(C)c1ccc2c(c1)Sc1cc(N(C)C)ccc1N2C(=O)c1ccccc1 | 195
80 | CN[C@@H](Cc1c[nH]c2ccccc12)C(=O)O | 295
81 | Cn1nc(-c2cccs2)cc1C(=O)Cl | 113 to 114
82 | Cc1cc2cc3c(C)cc(=O)oc3c(C)c2o1 | 230 to 234
83 | CC(C)OC(=O)OOC(=O)OC(C)C | 10
84 | O=C(CN1CCNCC1)N1CCOCC1 | 63 to 65
85 | O=Cc1ccc(Oc2cccnc2)o1 | 72 to 73
86 | N#Cc1cc([N+](=O)[O-])cc([N+](=O)[O-])c1 | 129
87 | O=S(=O)(Cl)c1ccc(-c2ccccc2)cc1 | 115
88 | c1ccc2c(c1)cc1ccc3cc4ccccc4c4ccc2c1c34 | 282
89 | O=[N+]([O-])c1ccc2c(c1)CCN2S(=O)(=O)c1ccccc1 | 128 to 130
90 | O=Cc1ccc(O)c(F)c1 | 123
91 | CCOC(=O)c1ccsc1N | 42 to 44
92 | CC(C)(C)c1cc(C(C)(C)c2ccc(O)c(C(C)(C)C)c2)ccc1O | 114
93 | CCOC(=O)N=C(c1ccc[nH]1)N1CCOCC1 | 147 to 149
94 | NC(=S)Nc1ccc(Oc2ccccc2)cc1 | 175 to 177
95 | COc1cc(C=C[N+](=O)[O-])ccc1OCc1ccccc1 | 123
96 | N#Cc1ccc(C=Cc2ccc(C=Cc3ccc(C#N)cc3[N+](=O)[O-])cc2)c([N+](=O)[O-])c1 | 350
97 | CC1=C(C(=O)OCc2ccccc2)C(c2cccc([N+](=O)[O-])c2)NC(=S)N1 (stereo not drawn) | 176
98 | BrCc1ccc2nonc2c1 | 77 to 80
99 | CC(=O)c1ccc(C)cc1 | 28
100 | CC(=O)Oc1ccc2ccccc2c1 | 69
101 | NC(CO)Cc1ccccc1 (stereo not drawn) | 91.5
102 | O=C(C(Cl)Cl)C(Cl)(Cl)Cl | 2.1
103 | Clc1cc(-c2ccccc2)nc2ccccc12 | 62 to 64

Row | SMILES | melting point [°C]
104 | Fc1ccc(-c2n[nH]c(=S)n2-n2cccc2)cc1 | 234
105 | O=C(O)c1cnccc1C(F)(F)F | 150
106 | CCOP(=O)(OCC)OC(=CCl)c1ccc(Cl)cc1Cl | -20
107 | Cn1c(=S)sc2ccccc21 | 90
108 | CNc1cnn(-c2cccc(C(F)(F)F)c2)c(=O)c1Cl | 184
109 | CC(C)(C)N(NC(=O)c1ccccc1)C(=O)c1c(Cl)cccc1Cl | 198
110 | CC1(C)OC2OC(CO)C3OC(C)(C)OC3C2O1 (stereo not drawn) | 120 to 122
111 | O=C(O)C(Br)c1ccccc1Cl (stereo not drawn) | 107
112 | BrCC(Br)(Br)Br | 0
113 | NC(=O)COc1cccc(Cl)c1 | 123 to 126
114 | O=Cc1cn2ccccc2n1 | 78 to 79
115 | NC(CP(=O)(O)O)C(=O)O (stereo not drawn) | 227 to 229
116 | Cc1c(C)n(C)c2ccccc12 | 18
117 | Brc1ccc2oc3ccccc3c2c1 | 110
118 | CC(C)[C@]12C/C(=N\NC(N)=O)[C@H](C)[C@H]1C2 | 174
119 | O=C(Br)C(=O)Br | -19
120 | COc1ccc(C(=O)O)c(OC)c1 | 109
121 | COc1ccc(Br)c(C)c1C(=O)O | 163
122 | O=C1[C@H]2CC[C@@H]1[C@H]1C=C[C@@H]2O1 | 97
123 | OCc1sc(-c2ccccc2)nc1-c1ccccc1 | 125
124 | CC(=O)OC1CCC(C(C)(C)C)CC1 (stereo not drawn) | -50
125 | C=CCC1=C(O)C2=CC=C3C(C)=C(C)C(=O)CC3(C)C2=C(O)C1=O (stereo not drawn) | 171
126 | C=C1CC(=CC)C(=O)OC2CCN3CC=C(COC(=O)C1(C)O)C23 (stereo not drawn) | 218
127 | CCOCn1c(-c2ccc(Cl)cc2)c(C#N)c(Br)c1C(F)(F)F | 101
128 | COc1cc(C2c3cc4c(cc3C(O)C3COC(=O)C23)OCO4)cc(OC)c1OC (stereo not drawn) | 228

Reference: a melting point compilation (Tetko et al.)
